Like-named read-outs stand apart in the source and are kept apart here.
Tests used:
[1] = test system: SMN2 minigene (full length SMN2 minigene mRNA containing SMN2 exon 7); assay: SMN2 minigene mRNA splicing RT-qPCR assay in cultured cells; type: cell-based, human; conditions: Homo sapiens, HEK293-H, read-out: EC1.5x for production of full length SMN2 mRNA
Method in brief: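 Full-length SMN2 minigene mRNA (exon 7 included), minigene-specific and not endogenous SMN, quantified by RT-qPCR multiplexed with GAPDH in stably transfected HEK293H cells after 24 h compound exposure at 37° C. Abundance from efficiency-corrected Ct, normalized to GAPDH and vehicle; EC1.5x reported as star bins.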

Smn protein = Smn protein assay in cultured cells (SMN HTRF); type: cell-based, human; conditions: 48 hours; for EC1.5x (concentration giving 1.5-fold Smn protein increase): SMA Type 1 patient fibroblast cells (GM03813), 7-point concentration curve, SMN HTRF, concentration producing 1.5 times Smn protein vs DMSO vehicle control, read-out: EC1.5x for Smn protein expression; for maximum fold (Fold) increase of Smn protein: SMA patient fibroblast cells, 7-point concentration data, fold increase relative to vehicle control (SMN HTRF)
Method in brief: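 Smn in SMA fibroblast lysates, measured by anti-SMN HTRF after 48 h compound exposure; EC1.5x from fold change over vehicle.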

[2] = HEK293H cells stably transfected with SMN2-A minigene, 24 hours, 7-point concentration curve, 1.5-fold relative to vehicle-treated cells

SMILES | melting point | EC (1.5-fold) [1, 2] | EC1.5x (concentration giving 1.5-fold Smn protein increase) (Smn protein) | maximum fold (Fold) increase of Smn protein (Smn protein) | EC (1.5-fold) ([1]; 24 h)
C[C@@H]1CN(c2ccc3cc(-c4nc5c(Cl)cccc5s4)c(=O)oc3c2)C[C@H](C)N1 [Compound 25, 3-(4-chloro-1,3-benzothiazol-2-yl)-7-[(3R,5S)-3,5-dimethylpiperazin-1-yl]-2H-chromen-2-one] | 229 to 235 °C | 0.3 to 1 µM |  | * (maximum fold increase of ≤1.2) | 
O=c1oc2cc(N3CCNCC3)ccc2cc1Nc1ccccc1 [Compound 75, 3-(phenylamino)-7-(piperazin-1-yl)-2H-chromen-2-one] | 140 to 143 °C |  |  | * (maximum fold increase of ≤1.2) | 3 to 30 µM
O=c1oc2cc(N3CCNCC3)ccc2cc1-c1ccsc1 [Compound 319, 7-(piperazin-1-yl)-3-(thiophen-3-yl)-2H-chromen-2-one] | 175 to 177 °C |  |  | ** (fold increase between >1.2 and ≤1.35) | 1 to 3 µM
CCc1cc(C)cn2cc(-c3cc4ccc(N5CCN(C)CC5)cc4oc3=O)nc12 [Compound 340, 3-(8-ethyl-6-methylimidazo[1,2-a]pyridin-2-yl)-7-(4-methylpiperazin-1-yl)-2H-chromen-2-one] | 203 to 210 °C | 0.3 to 1 µM |  | * (maximum fold increase of ≤1.2) | 
COc1cc(OC)cc(-c2cc3ccc(N4CCN[C@H](C)C4)cc3oc2=O)c1 [Compound 412, 3-(3,5-dimethoxyphenyl)-7-[(3R)-3-methylpiperazin-1-yl]-2H-chromen-2-one] | 148 to 150 °C | 3 to 30 µM |  | * (maximum fold increase of ≤1.2) | 
Cc1ccc2nc(-c3cc4ccc(N5CC6CCCNC6C5)cc4oc3=O)cn2c1 (centres unmarked) [Compound 255, 3-(6-methylimidazo[1,2-a]pyridin-2-yl)-7-(octahydro-6H-pyrrolo[3,4-b]pyridin-6-yl)-2H-chromen-2-one] | 220 to 230 °C | 3 to 30 µM |  | * (maximum fold increase of ≤1.2) | 
Cc1cnc2nc(-c3cc4ccc(N5CCCN(C)CC5)cc4oc3=O)cn2c1 [Compound 250, 7-(4-methyl-1,4-diazepan-1-yl)-3-(6-methylimidazo[1,2-a]pyrimidin-2-yl)-2H-chromen-2-one] | 285 to 287 °C | 0.1 to 0.3 µM | 1000 to 3000 nM | *** (fold increase between >1.35 and ≤1.5) | 
Cc1cc(F)c2nc(-c3cc4ccc(N5CCN(C)CC5)cc4oc3=O)cn2c1 [Compound 353, 3-(8-fluoro-6-methylimidazo[1,2-a]pyridin-2-yl)-7-(4-methylpiperazin-1-yl)-2H-chromen-2-one] | 252 to 262 °C | < 0.1 µM | 1000 to 3000 nM | **** (fold increase between >1.5 and ≤1.65) | 
Cc1cccn2cc(-c3cc4ccc(N5CCN[C@@H](C)C5)cc4oc3=O)nc12 [Compound 248, 3-(8-methylimidazo[1,2-a]pyridin-2-yl)-7-[(3S)-3-methylpiperazin-1-yl]-2H-chromen-2-one] | 162 to 166 °C | 0.1 to 0.3 µM | 1000 to 3000 nM | ** (fold increase between >1.2 and ≤1.35) | 
O=c1oc2cc(N3CCNCC3)ccc2cc1-c1ccc2[nH]ncc2c1 [Compound 91, 3-(1H-indazol-5-yl)-7-(piperazin-1-yl)-2H-chromen-2-one] | 250 to 252 °C | 0.3 to 1 µM |  | ** (fold increase between >1.2 and ≤1.35) | 
CN1CCN(c2ccc3cc(-c4nc5c(Cl)cccc5s4)c(=O)oc3c2)CC1 [Compound 17, 3-(4-chloro-1,3-benzothiazol-2-yl)-7-(4-methylpiperazin-1-yl)-2H-chromen-2-one] | 256 to 260 °C | 0.3 to 1 µM |  | ** (fold increase between >1.2 and ≤1.35) | 
Cc1csc(-c2cc3ccc(N4C[C@@H](C)NC[C@@H]4C)cc3oc2=O)n1 [Compound 299, 7-[(2S,5R)-2,5-dimethylpiperazin-1-yl]-3-(4-methyl-1,3-thiazol-2-yl)-2H-chromen-2-one] | 184 to 190 °C | 1 to 3 µM |  | * (maximum fold increase of ≤1.2) | 

Second part, led by results:

melting point | SMILES | EC (1.5-fold) [1, 2] | EC1.5x (concentration giving 1.5-fold Smn protein increase) (Smn protein) | maximum fold (Fold) increase of Smn protein (Smn protein) | EC (1.5-fold) ([1]; 24 h)
205 to 208 °C | CCN1CCN(c2ccc3cc(-c4cn5cc(C)ncc5n4)c(=O)oc3c2)C[C@@H]1C [Compound 627, 7-[(3S)-4-ethyl-3-methylpiperazin-1-yl]-3-(6-methylimidazo[1,2-a]pyrazin-2-yl)-2H-chromen-2-one] | < 0.1 µM | < 300 nM | ***** (fold increase >1.65) | 
187 to 190 °C | Cc1cn2cc(-c3cc4ccc(N5CCN(CCCO)[C@@H](C)C5)cc4oc3=O)nc2c(C)n1 [Compound 907, 3-(6,8-dimethylimidazo[1,2-a]pyrazin-2-yl)-7-[(3S)-4-(3-hydroxypropyl)-3-methylpiperazin-1-yl]-2H-chromen-2-one] | < 0.1 µM | < 300 nM | **** (fold increase between >1.5 and ≤1.65) | 
210 to 219 °C | C[C@@H]1CN(c2cc(F)c3cc(-c4cn5ccc(C(F)(F)F)cc5n4)c(=O)oc3c2)C[C@H](C)N1 [Cpd 391, 7-[(3R,5S)-3,5-dimethylpiperazin-1-yl]-5-fluoro-3-[7-(trifluoromethyl)imidazo[1,2-a]pyridin-2-yl]-2H-chromen-2-one] | 1 to 3 µM |  | ** (fold increase between >1.2 and ≤1.35) | 
283 to 284 °C | Cc1cn2cc(-c3cc4c(F)cc(N5CCN(C)CC5)cc4oc3=O)nc2cn1 [Compound 592, 5-fluoro-3-(6-methylimidazo[1,2-a]pyrazin-2-yl)-7-(4-methylpiperazin-1-yl)-2H-chromen-2-one] | < 0.1 µM | < 300 nM | ***** (fold increase >1.65) | 
288 to 290 °C | Cc1nn2cc(-c3cc4ccc(N5CCNCC5)cc4oc3=O)nc2s1 [Cpd 441, 3-(2-methylimidazo[2,1-b][1,3,4]thiadiazol-6-yl)-7-(piperazin-1-yl)-2H-chromen-2-one] | < 0.1 µM |  | *** (fold increase between >1.35 and ≤1.5) | 
256 to 268 °C | Cc1cn2cc(-c3cc4ccc(C5CCN(C6CCC6)CC5)cc4oc3=O)nc2cn1 [Compound 869, 7-(1-cyclobutylpiperidin-4-yl)-3-(6-methylimidazo[1,2-a]pyrazin-2-yl)-2H-chromen-2-one] | < 0.1 µM | < 300 nM | ***** (fold increase >1.65) | 
175 to 177 °C | Cc1cn2cc(-c3cc4ccc(OCCN5CCOCC5)cc4oc3=O)nc2c(C)n1 [Compound 956, 3-(6,8-dimethylimidazo[1,2-a]pyrazin-2-yl)-7-[2-(morpholin-4-yl)ethoxy]-2H-chromen-2-one] | 0.1 to 0.3 µM | 1000 to 3000 nM | ***** (fold increase >1.65) | 
248 to 250 °C | Cc1cn2cc(-c3cc4c(F)cc(N5CCCNCC5)cc4oc3=O)nc2c(C)n1 [Compound 608, 7-(1,4-diazepan-1-yl)-3-(6,8-dimethylimidazo[1,2-a]pyrazin-2-yl)-5-fluoro-2H-chromen-2-one] | < 0.1 µM | < 300 nM | ***** (fold increase >1.65) | 
212 to 218 °C | Cc1nc(Cl)cn2cc(-c3cc4ccc(N5CCCN(C)CC5)cc4oc3=O)nc12 [Cpd 712, 3-(6-chloro-8-methylimidazo[1,2-a]pyrazin-2-yl)-7-(4-methyl-1,4-diazepan-1-yl)-2H-chromen-2-one] | < 0.1 µM |  | ** (fold increase between >1.2 and ≤1.35) | 
256 to 258 °C | CN1CCN(c2ccc3cc(-c4cn5ccsc5n4)c(=O)oc3c2)CC1 [Cpd 117, 3-(imidazo[2,1-b][1,3]thiazol-6-yl)-7-(4-methylpiperazin-1-yl)-2H-chromen-2-one] | 0.1 to 0.3 µM | 300 to 1000 nM | **** (fold increase between >1.5 and ≤1.65) | 
241 to 243 °C | COc1ccc(-c2cc3ccc(N4CCNCC4)cc3oc2=O)cc1F [Compound 544, 3-(3-fluoro-4-methoxyphenyl)-7-(piperazin-1-yl)-2H-chromen-2-one] | 0.1 to 0.3 µM |  | ** (fold increase between >1.2 and ≤1.35) | 
251 to 256 °C | Cc1cc2cc(-c3cc4ccc(N5CCN[C@H](C)C5)cc4oc3=O)oc2c(C)n1 [Compound 806, 3-(5,7-dimethylfuro[2,3-c]pyridin-2-yl)-7-[(3R)-3-methylpiperazin-1-yl]-2H-chromen-2-one] | < 0.1 µM | < 300 nM | ***** (fold increase >1.65) | 

— patent publication USRE47689E1, “Compounds for treating spinal muscular atrophy” (PTC Therapeutics, Inc., priority 2011, dated 2019)
